Among the test systems are 786-0; A549; CCRF-CEM; DU-145; HCT-15; IGROV-1; K562; LOX IMVI; MDA-MB-435; NCI-H460; NCI/ADR-RES; PC-3; SF-268; SK-MEL-5; SN12C; SW-620; T47D; UACC-62; A498.
What all share (assay): NCI-60 cell line screen, 48 h

Experimental findings from ChEMBL document CHEMBL1201862, “PubChem BioAssay data set” (2004) are described below.

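Protocol summary: plate cells (96-well), add compound at 5 concentrations, incubate 48 h, interpolate endpoints linearly. GI50 is the concentration that inhibits growth by half.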 Activity calls are given as the source filed them. Cut-off read from the data, not from the text of the source: active = GI50 up to about 1.1 µM and inactive = higher. A value given as a limit tells only on which side of the number the result lay.

As to `CCOC(=O)C(NC(=O)CC)(Nc1ccc(S(=O)(=O)Nc2ncccn2)cc1)C(F)(F)F` (configuration not stated), the GI50 with 786-0 was > 100 µM (inactive); in the experiment with A549, > 100 µM (inactive); with CCRF-CEM, > 100 µM (inactive); in the experiment on DU-145 it was > 100 µM (inactive); in the experiment on HCT-15 it was greater than 100 µM; with IGROV-1, > 100 µM (inactive). The GI50 with K562, with LOX IMVI, with MDA-MB-435, in the experiment with NCI-H460, in the experiment with NCI/ADR-RES and with PC-3 was > 100 µM (inactive) each time. For the same molecule, the GI50 with SF-268, in the experiment with SK-MEL-5, in the experiment with SN12C, with SW-620, with T47D and in the experiment on UACC-62 was > 100 µM (inactive) in each case.

Turning to `COc1cc(OC(C)=O)cc2c(OC(C)=O)ccc(OC(C)=O)c12`, the GI50 with 786-0 was > 100 µM (inactive); with A498 it was > 100 µM (inactive); with A549, > 100 µM (inactive); in the experiment on CCRF-CEM, 74.8 µM (inactive); in the experiment on HCT-15, greater than 100 µM; in the experiment with IGROV-1, > 100 µM (inactive). In addition, the GI50 with K562, in the experiment on LOX IMVI, with NCI-H460, in the experiment with SF-268, in the experiment on SK-MEL-5 and in the experiment with SN12C was > 100 µM (inactive) each time. For the same molecule, the GI50 in the experiment with SW-620 and in the experiment with UACC-62 was > 100 µM (inactive) in each case.

With `COc1cccc(/C=N\NC(=O)C(C)SC(C)C(=O)N/N=C/c2cccc(OC)c2)c1` (configuration not stated), the GI50 with 786-0 was 17.3 µM (inactive); in the experiment on A498, 13 µM (inactive); in the experiment on A549, 14.6 µM (inactive); with CCRF-CEM, 31.9 µM (inactive); in the experiment with HCT-15, greater than 100 µM; in the experiment on IGROV-1, 20.3 µM (inactive). Also, the GI50 is > 78.3 µM (inactive) in the experiment with K562; > 10 µM (inactive) in the experiment on LOX IMVI; 14.9 µM (inactive) with NCI-H460; 33.4 µM (inactive) in the experiment with SF-268; 56.1 µM (inactive) in the experiment on SK-MEL-5; 19.6 µM (inactive) in the experiment on SN12C. The GI50 in the experiment with SW-620 was 57.8 µM (inactive); in the experiment with UACC-62, > 54.2 µM (inactive).

Consider `N=C(N)N/N=C/c1oc(-c2ccc(S(=O)(=O)O)o2)c(-c2ccc(S(=O)(=O)O)o2)c1[N+](=O)[O-]`, for which the GI50 with 786-0 is > 100 µM (inactive); with A498 it was > 100 µM (inactive); in the experiment with A549, > 100 µM (inactive); in the experiment on CCRF-CEM, > 100 µM (inactive); in the experiment with HCT-15, greater than 100 µM; in the experiment on IGROV-1, > 100 µM (inactive). Further, the GI50 in the experiment on K562, with LOX IMVI, in the experiment on NCI-H460, in the experiment with SF-268, in the experiment with SK-MEL-5 and in the experiment with SN12C was > 100 µM (inactive) in each case. Besides, the GI50 with SW-620 and in the experiment with UACC-62 was > 100 µM (inactive) in each case.

On to `COc1cc(C(=O)C/C(CCC(=O)Nc2ccc(Cl)cc2C)=N/NC(=O)C(N)=O)ccc1O`, for which the GI50 was > 100 µM (inactive) in the experiment on 786-0; > 100 µM (inactive) with A498; > 100 µM (inactive) in the experiment with A549; > 100 µM (inactive) in the experiment on CCRF-CEM; greater than 100 µM with HCT-15; > 100 µM (inactive) with IGROV-1. In addition, the GI50 with K562, with LOX IMVI, in the experiment with NCI-H460, in the experiment on SF-268, in the experiment on SK-MEL-5 and with SN12C was > 100 µM (inactive) each time. Moreover, the GI50 in the experiment on SW-620 and with UACC-62 was > 100 µM (inactive) throughout.

With `C=C1C(=O)OC2CCCCC3OC3C12` (configuration not stated), the GI50 in the experiment with 786-0 is 7.19 µM (inactive); in the experiment with A498, 15.3 µM (inactive); in the experiment on A549, 20.9 µM (inactive); in the experiment on CCRF-CEM, 3.04 µM (inactive); in the experiment with HCT-15 it was 6.9 µM; with IGROV-1 it was 17.1 µM (inactive). The GI50 in the experiment on K562 is 12.3 µM (inactive); in the experiment with LOX IMVI, 15.8 µM (inactive); with NCI-H460 it was 14.8 µM (inactive); in the experiment with SF-268, 13.8 µM (inactive); in the experiment on SK-MEL-5, 3.99 µM (inactive); in the experiment with SN12C it was 7.62 µM (inactive). Further, the GI50 was 4.06 µM (inactive) with SW-620 and 3.56 µM (inactive) in the experiment with UACC-62.

As for `CCOC(=O)c1ccc(N[C@@H]2c3cc4c(cc3C(C3=CC(=O)C(=O)C(OC)=C3)[C@H]3C(=O)OCC32)OCO4)cc1` (some centres not stated), the GI50 with 786-0 was 1.6 µM (inactive); in the experiment with A498, 1.77 µM (inactive); in the experiment with A549 it was 0.548 µM (active); in the experiment with CCRF-CEM it was 0.845 µM (active); in the experiment with HCT-15, 2.21 µM; in the experiment with IGROV-1 it was 5.78 µM (inactive). Also, the GI50 with K562 was 2.67 µM (inactive); in the experiment with LOX IMVI, 2.08 µM (inactive); in the experiment with NCI-H460, 0.173 µM (active); in the experiment with SF-268 it was 1.77 µM (inactive); in the experiment with SK-MEL-5, 2.72 µM (inactive); in the experiment on SN12C, 2 µM (inactive). Besides, the results for the GI50 in the experiment on SW-620 and in the experiment with UACC-62 were 2.34 µM (inactive) and 1.69 µM (inactive), respectively.

Regarding `COC[C@@H](/N=C/c1ccc([N+](=O)[O-])cc1)C(C)C`, the GI50 is > 100 µM (inactive) in the experiment with 786-0; > 100 µM (inactive) in the experiment on A549; 75.9 µM (inactive) in the experiment on CCRF-CEM; > 100 µM (inactive) with DU-145; greater than 100 µM with HCT-15; > 100 µM (inactive) in the experiment with IGROV-1. Moreover, the GI50 in the experiment with K562 was 34.1 µM (inactive); in the experiment with LOX IMVI it was 52.7 µM (inactive); in the experiment with MDA-MB-435 it was > 100 µM (inactive); in the experiment with NCI-H460 it was > 100 µM (inactive); with NCI/ADR-RES, > 100 µM (inactive); in the experiment with PC-3, > 100 µM (inactive). For the same molecule, the GI50 in the experiment with SF-268 is > 100 µM (inactive); with SK-MEL-5, > 10 µM (inactive); with SN12C, > 100 µM (inactive); with SW-620, > 100 µM (inactive); in the experiment on UACC-62, > 100 µM (inactive).

Regarding `O=C(c1ccc(Cl)cc1)c1ccc(OCCSCCCCCCCCCCSCCOc2ccc(C(=O)c3ccc(Cl)cc3)cc2)cc1`, the GI50 in the experiment on 786-0 was > 100 µM (inactive); in the experiment with A498, > 100 µM (inactive); with A549 it was > 100 µM (inactive); in the experiment with CCRF-CEM it was > 100 µM (inactive); in the experiment with HCT-15, greater than 100 µM; with IGROV-1, > 100 µM (inactive). Also, the GI50 with K562, in the experiment on LOX IMVI, with NCI-H460, in the experiment on SF-268, in the experiment with SK-MEL-5 and in the experiment with SN12C was > 100 µM (inactive) each time. The GI50 in the experiment on SW-620 and in the experiment on UACC-62 was > 100 µM (inactive) each time.

Regarding `CC(C)c1c(O[Si](C(C)C)(C(C)C)C(C)C)cc2c(c1O)CC[C@H]1C(C)(C)CCC[C@]21C`, the GI50 in the experiment with 786-0 is > 100 µM (inactive); in the experiment with A498, > 100 µM (inactive); in the experiment on A549, > 100 µM (inactive); with CCRF-CEM, 49.5 µM (inactive); with DU-145 it was > 100 µM (inactive); in the experiment on HCT-15 it was greater than 100 µM. Besides, the GI50 in the experiment with IGROV-1 is > 100 µM (inactive); with K562, 65.6 µM (inactive); in the experiment on LOX IMVI, > 100 µM (inactive); with MDA-MB-435, > 100 µM (inactive); with NCI-H460 it was > 100 µM (inactive); in the experiment on NCI/ADR-RES, > 100 µM (inactive). In addition, the GI50 in the experiment with PC-3, with SF-268, with SK-MEL-5, in the experiment with SN12C, in the experiment with SW-620 and in the experiment on UACC-62 was > 100 µM (inactive) in each case.

Regarding `COc1ccc(C(=O)C(CO)Oc2ccccc2OC)cc1OC` (configuration not stated), the GI50 in the experiment with 786-0 is > 100 µM (inactive); in the experiment on A498, > 100 µM (inactive); in the experiment with A549, > 100 µM (inactive); in the experiment on CCRF-CEM, > 100 µM (inactive); in the experiment on HCT-15 it was greater than 100 µM; in the experiment with IGROV-1, > 100 µM (inactive). Besides, the GI50 in the experiment with K562, in the experiment on LOX IMVI, in the experiment with NCI-H460, in the experiment with SF-268, in the experiment on SK-MEL-5 and in the experiment with SN12C was > 100 µM (inactive) each time. Besides, the GI50 in the experiment on SW-620 and in the experiment with UACC-62 was > 100 µM (inactive) throughout.

For the molecule `O=C(O)c1ccc(Nc2nc3ccc(C(F)(F)F)cc3nc2C(=O)O)cc1`, the GI50 in the experiment on 786-0 was > 100 µM (inactive); in the experiment on A549, > 100 µM (inactive); with CCRF-CEM, > 100 µM (inactive); with DU-145, > 100 µM (inactive); in the experiment on HCT-15, greater than 100 µM; in the experiment on IGROV-1, > 100 µM (inactive). Further, the GI50 with K562, in the experiment with LOX IMVI, in the experiment with MDA-MB-435, in the experiment with NCI-H460, in the experiment with NCI/ADR-RES and with PC-3 was > 100 µM (inactive) in each case. Moreover, the GI50 in the experiment on SF-268, with SK-MEL-5, with SN12C, in the experiment with SW-620, in the experiment with T47D and in the experiment with UACC-62 was > 100 µM (inactive) in each case.

For `O=Cc1c(O)c(C(=O)Nc2ccc3[nH]c(=O)[nH]c3c2)cc2ccccc12`, the GI50 in the experiment on 786-0 was > 100 µM (inactive); with A498, > 100 µM (inactive); in the experiment on A549, > 100 µM (inactive); in the experiment on CCRF-CEM, > 100 µM (inactive); with HCT-15, greater than 100 µM; with IGROV-1, > 100 µM (inactive). Further, the GI50 in the experiment with K562, in the experiment on LOX IMVI, with NCI-H460, with SF-268, in the experiment with SK-MEL-5 and with SN12C was > 100 µM (inactive) each time. The GI50 in the experiment with SW-620 and with UACC-62 was > 100 µM (inactive) throughout.
